Assay results published in PMC11261611, “Tongue-on-a-Chip: Parallel Recording of Sweet and Bitter Receptor Responses to Sequential Injections of Pure and Mixed Sweeteners” (Journal of Agricultural and Food Chemistry, 2024).
One block for each compound: values may come before it. Where a SMILES comes first, the peptide text is derived from it.

Key:
[1] = target: T1, sweet taste receptor TAS1R2/R3 (TAS1R2) (Homo sapiens, UniProt Q7RTX0+Q8TE23); assay: calcium (Twitch2B FRET) response in reverse-transfected HEK293-Gα[…]GUST44 receptor array, flow cell; type: cell-based
T1 construct: with TAS1R3
T1 sequence (Q8TE23 20-839): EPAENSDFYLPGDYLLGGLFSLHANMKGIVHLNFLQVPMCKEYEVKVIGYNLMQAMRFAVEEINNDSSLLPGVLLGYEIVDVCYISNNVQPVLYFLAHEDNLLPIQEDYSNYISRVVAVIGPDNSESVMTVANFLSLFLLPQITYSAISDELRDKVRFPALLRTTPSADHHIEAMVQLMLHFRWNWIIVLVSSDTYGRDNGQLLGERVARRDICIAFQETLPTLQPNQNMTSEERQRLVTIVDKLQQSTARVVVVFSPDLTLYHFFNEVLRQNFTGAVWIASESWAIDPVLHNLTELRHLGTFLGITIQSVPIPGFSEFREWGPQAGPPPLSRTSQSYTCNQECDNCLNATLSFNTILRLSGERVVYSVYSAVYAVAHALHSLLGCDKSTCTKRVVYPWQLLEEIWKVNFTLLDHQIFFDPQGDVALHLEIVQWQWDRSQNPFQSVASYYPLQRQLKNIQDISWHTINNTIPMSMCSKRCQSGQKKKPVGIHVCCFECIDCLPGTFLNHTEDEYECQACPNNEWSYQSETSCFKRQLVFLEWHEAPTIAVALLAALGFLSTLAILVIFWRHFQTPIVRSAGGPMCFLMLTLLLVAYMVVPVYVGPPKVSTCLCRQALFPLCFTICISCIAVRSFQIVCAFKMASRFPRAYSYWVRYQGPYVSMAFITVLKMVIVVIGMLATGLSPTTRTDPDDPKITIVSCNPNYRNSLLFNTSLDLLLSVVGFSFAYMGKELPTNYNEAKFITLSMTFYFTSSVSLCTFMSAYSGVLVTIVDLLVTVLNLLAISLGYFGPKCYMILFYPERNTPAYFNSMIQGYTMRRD
T1 sequence (Q7RTX0 21-852): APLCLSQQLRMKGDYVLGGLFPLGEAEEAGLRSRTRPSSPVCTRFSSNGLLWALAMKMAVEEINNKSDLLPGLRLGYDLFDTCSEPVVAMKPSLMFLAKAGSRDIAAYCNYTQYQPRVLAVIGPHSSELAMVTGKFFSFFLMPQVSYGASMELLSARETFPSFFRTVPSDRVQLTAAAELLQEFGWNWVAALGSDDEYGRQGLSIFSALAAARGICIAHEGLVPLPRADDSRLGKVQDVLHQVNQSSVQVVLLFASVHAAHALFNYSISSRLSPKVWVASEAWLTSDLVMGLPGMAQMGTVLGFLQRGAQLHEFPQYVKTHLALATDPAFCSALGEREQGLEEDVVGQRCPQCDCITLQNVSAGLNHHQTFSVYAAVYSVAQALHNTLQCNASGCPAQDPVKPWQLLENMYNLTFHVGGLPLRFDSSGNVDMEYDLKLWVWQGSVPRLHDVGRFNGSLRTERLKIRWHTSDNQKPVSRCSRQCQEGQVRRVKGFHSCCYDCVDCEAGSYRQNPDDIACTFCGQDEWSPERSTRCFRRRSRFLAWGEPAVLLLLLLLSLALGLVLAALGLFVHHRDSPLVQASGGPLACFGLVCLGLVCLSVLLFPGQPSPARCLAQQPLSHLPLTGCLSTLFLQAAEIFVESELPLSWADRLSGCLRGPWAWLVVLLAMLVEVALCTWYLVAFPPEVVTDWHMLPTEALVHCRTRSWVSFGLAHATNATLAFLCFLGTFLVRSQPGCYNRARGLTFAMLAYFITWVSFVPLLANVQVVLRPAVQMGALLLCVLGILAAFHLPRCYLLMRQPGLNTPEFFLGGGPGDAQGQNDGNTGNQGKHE

[2] = target: T2, TAS2R43 (Homo sapiens, UniProt P59537); conditions: hek293 cells
T2 sequence (P59537 1-309): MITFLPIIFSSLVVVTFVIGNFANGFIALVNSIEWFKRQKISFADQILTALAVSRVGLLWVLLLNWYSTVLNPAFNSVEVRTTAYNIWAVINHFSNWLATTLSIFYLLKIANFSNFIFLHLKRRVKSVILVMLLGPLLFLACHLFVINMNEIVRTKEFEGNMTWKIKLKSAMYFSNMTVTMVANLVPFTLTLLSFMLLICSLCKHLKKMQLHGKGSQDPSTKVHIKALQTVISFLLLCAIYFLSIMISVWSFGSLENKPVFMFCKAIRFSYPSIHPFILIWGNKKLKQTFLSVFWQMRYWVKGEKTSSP

[3] = target: TAS2R31 (Homo sapiens, UniProt P59538); conditions: hek293 cells
Sequence of TAS2R31 (P59538 whole entry): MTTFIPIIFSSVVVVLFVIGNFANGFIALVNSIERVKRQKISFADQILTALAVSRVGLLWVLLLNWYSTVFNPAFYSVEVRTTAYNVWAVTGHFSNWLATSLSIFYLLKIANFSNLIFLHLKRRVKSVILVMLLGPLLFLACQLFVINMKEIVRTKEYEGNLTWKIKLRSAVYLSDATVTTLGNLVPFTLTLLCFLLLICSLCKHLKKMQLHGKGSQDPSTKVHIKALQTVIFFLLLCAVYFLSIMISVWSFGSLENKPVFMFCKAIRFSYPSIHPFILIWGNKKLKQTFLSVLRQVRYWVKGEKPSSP

[4] = target: T3, TAS2R8 (Homo sapiens, UniProt Q9NYW2); conditions: hek293 cells
T3 sequence (Q9NYW2 1-309): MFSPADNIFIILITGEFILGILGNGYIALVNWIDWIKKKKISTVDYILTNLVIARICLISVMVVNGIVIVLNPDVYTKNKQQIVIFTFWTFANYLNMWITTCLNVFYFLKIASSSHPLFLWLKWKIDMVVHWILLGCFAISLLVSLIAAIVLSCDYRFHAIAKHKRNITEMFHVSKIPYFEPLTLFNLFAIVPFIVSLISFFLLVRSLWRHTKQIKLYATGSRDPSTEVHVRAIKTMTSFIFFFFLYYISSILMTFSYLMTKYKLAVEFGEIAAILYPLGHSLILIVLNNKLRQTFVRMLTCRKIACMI

[5] = target: T1, sweet taste receptor TAS1R2/R3 (TAS1R2); assay: calcium (Twitch2B FRET) response in reverse-transfected HEK293-Gα[…]GUST44 receptor array, normalized against umami receptor signal; type: cell-based

Compound: COC(=O)[C@H](Cc1ccccc1)NC(=O)[C@H](CC(=O)O)NCCCc1ccc(OC)c(O)c1 [advantame]
EC50 [1]: ~1.5 µM

EC50 [1]: 625 µM
Compound: COC(=O)[C@H](Cc1ccccc1)NC(=O)[C@@H](N)CC(=O)O [aspartame] (H-Asp-Phe-OMe)

Compound: O=S(=O)(O)NC1CCCCC1 [cyclamate]
% signal reduction [2]: 92 % signal reduction | % signal reduction [3]: 48 % signal reduction | % signal reduction [4]: 33 % signal reduction

Compound: OC[C@H]1O[C@@](CO)(O[C@H]2O[C@H](CO)[C@@H](O)[C@H](O)[C@H]2O)[C@@H](O)[C@@H]1O [sucrose]
EC50 [5]: 35 mM
